The source of these data is ChEMBL document CHEMBL3259612, “Design, synthesis, docking and anti-inflammatory evaluation of novel series of benzofuran based prodrugs” (Bioorg Med Chem Lett, 2014).

The structures appear in SMILES notation.

The nature of assay [1]: Selectivity index, ratio of IC50 for human recombinant COX-2 to IC50 for rat seminal vesicle COX-1. It is filed as tissue-based.
For assay [2], the system named is Rattus norvegicus. In words: Antiinflammatory activity in Wistar albino rat assessed as inhibition of carrageenan-induced increase in paw edema at 10 mg/kg, po after 30 mins (reference value: 30.1 %). It is filed as functional. Also on record: scale not given: the % may be the effect or the level left. (Carrageenan injected into the paw causes an acute inflammation.)

In assay [3] the target is T1, Prostaglandin G/H synthase 1 (Rattus norvegicus, UniProt Q63921).
T1 sequence (Q63921 whole entry): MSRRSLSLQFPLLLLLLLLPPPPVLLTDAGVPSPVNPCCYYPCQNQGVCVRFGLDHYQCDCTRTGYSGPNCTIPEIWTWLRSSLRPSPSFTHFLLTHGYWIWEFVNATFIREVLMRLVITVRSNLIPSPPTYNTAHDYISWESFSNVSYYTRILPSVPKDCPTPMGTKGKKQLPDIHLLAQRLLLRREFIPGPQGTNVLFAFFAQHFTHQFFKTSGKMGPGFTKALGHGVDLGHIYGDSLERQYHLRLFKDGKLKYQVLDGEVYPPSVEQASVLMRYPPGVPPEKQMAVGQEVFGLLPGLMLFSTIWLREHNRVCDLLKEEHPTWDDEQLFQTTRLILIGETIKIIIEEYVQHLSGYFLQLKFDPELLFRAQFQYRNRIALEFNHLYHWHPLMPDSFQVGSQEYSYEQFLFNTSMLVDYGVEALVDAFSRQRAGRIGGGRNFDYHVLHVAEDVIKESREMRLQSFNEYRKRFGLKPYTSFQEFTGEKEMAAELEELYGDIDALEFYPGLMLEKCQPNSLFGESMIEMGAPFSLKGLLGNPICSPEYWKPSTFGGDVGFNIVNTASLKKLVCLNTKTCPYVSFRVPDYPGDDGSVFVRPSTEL
In words: Inhibition of rat seminal vesicle COX-1 using arachidonic acid as substrate assessed as reduction of PGG2 to PGH2 incubated for 1 min prior to substrate addition measured after 25 secs by chromogenic assay.

Assay [4] has as its target T2, Prostaglandin G/H synthase 2 (Homo sapiens, UniProt P35354).
T2 sequence (P35354 whole entry): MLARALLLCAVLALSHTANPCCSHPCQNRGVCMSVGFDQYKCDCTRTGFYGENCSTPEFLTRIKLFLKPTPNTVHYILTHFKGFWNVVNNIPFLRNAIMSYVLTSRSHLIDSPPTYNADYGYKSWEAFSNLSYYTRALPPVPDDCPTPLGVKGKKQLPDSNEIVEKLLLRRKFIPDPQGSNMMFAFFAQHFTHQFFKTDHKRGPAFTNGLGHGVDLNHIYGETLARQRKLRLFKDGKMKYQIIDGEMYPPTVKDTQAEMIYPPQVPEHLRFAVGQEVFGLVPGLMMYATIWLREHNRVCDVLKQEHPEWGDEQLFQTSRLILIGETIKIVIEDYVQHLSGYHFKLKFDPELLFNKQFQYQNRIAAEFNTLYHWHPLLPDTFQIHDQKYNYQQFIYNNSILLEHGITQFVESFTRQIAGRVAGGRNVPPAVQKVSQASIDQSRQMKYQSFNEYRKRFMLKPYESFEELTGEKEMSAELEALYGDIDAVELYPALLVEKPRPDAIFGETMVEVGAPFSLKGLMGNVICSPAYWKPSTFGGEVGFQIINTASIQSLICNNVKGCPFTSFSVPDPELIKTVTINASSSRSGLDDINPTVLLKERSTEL
In words: Inhibition of human recombinant COX-2 expressed in insect cell system using arachidonic acid as substrate assessed as reduction of PGG2 to PGH2 incubated for 1 min prior to substrate addition measured after 25 secs by chromogenic assay.

The test system of assay [5] is Rattus norvegicus. As to the kind of experiment: Antiinflammatory activity in Wistar albino rat assessed as inhibition of carrageenan-induced increase in paw edema at 10 mg/kg, po after 90 mins (reference value: 38.7 %). It is filed as functional. Also on record: scale not given: the % may be the effect or the level left.

Broadly, the IC50 is the concentration needed to halve the response being measured.

Regarding `CCOC(=O)c1c(-c2ccccc2)oc2ccc(Oc3ccccc3C)cc12`, in assay [1], the Ratio IC50 is 0.67. Further, the Activity is given as 14.8% in the assay on Rattus norvegicus [2] and 24.4% in the assay on Rattus norvegicus [5]. Besides, the 50% inhibitory concentration (IC50) was determined as 29.8 µM in assay [3] and 20.1 µM in assay [4].

In the case of `CCOC(=O)c1c(C)oc2ccc(Oc3ccccc3)cc12`, the Ratio IC50 in assay [1] is 0.59. For the same molecule, the figures for the Activity with Rattus norvegicus [2] and with Rattus norvegicus [5] were 15.7% and 23.8%, respectively. Also, the IC50 in assay [3] was determined as 30.8 µM; in assay [4], 18.5 µM.

As for `CCOC(=O)c1c(-c2ccccc2)oc2ccc(Oc3ccccc3)cc12`, the Ratio IC50 in assay [1] came to 0.43. Further, the Activity in the assay with Rattus norvegicus [2] stood at 15.8%; in the assay with Rattus norvegicus [5] it was 28.4%. Moreover, the IC50 stood at 42.5 µM in assay [3] and 18.2 µM in assay [4].

For the molecule `CCOC(=O)c1c(C)oc2ccc(Oc3ccccn3)cc12`, the Ratio IC50 in assay [1] was found to be 0.29. The IC50 amounted to 27.9 µM in assay [3] and 8.1 µM in assay [4]. Also, in the assay with Rattus norvegicus [5], the Activity is recorded as 18.9%.

As to `CCOC(=O)c1c(C)oc2ccc(Oc3ccc(OC)cc3)cc12`, in assay [1], the Ratio IC50 was 0.23. In addition, the Activity with Rattus norvegicus [2] was 9.5%; in the assay on Rattus norvegicus [5], 12.3%. Besides, the 50% inhibitory concentration (IC50) in assay [3] came to 38.1 µM; in assay [4] it was 8.6 µM.

In the case of `CCOC(=O)c1c(C)oc2ccc(Oc3ccc4ccccc4c3)cc12`, the Ratio IC50 in assay [1] came out at 0.35. Besides, the 50% inhibitory concentration (IC50) in assay [3] worked out at 47.5 µM; in assay [4], 15.8 µM.

For `CCOC(=O)c1c(C)oc2ccc(Oc3ccccc3C)cc12`, the Ratio IC50 in assay [1] was determined as 0.17. The results for the Activity in the assay on Rattus norvegicus [2] and in the assay on Rattus norvegicus [5] were 10.1% and 20.4%, respectively. For the same molecule, the half-maximal inhibitory concentration (IC50) was 35.8 µM in assay [3] and 6.1 µM in assay [4].

Take `CCOC(=O)c1c(-c2ccccc2)oc2ccc(Oc3ccc4ccccc4c3)cc12`: the Activity was determined as 20.1% with Rattus norvegicus [2] and 32.6% in the assay on Rattus norvegicus [5].

For the molecule `CCOC(=O)c1c(-c2ccccc2)oc2ccc(Oc3ccccn3)cc12`, the figures for the Activity in the assay with Rattus norvegicus [2] and in the assay with Rattus norvegicus [5] were 25.1% and 32.6%, respectively.

For the molecule `CCOC(=O)c1c(-c2ccccc2)oc2ccc(Oc3ccc(C)cc3)cc12`, the Ratio IC50 in assay [1] was 0.74. For the same molecule, the Activity with Rattus norvegicus [2] worked out at 22.1%; in the assay on Rattus norvegicus [5], 32.6%. The IC50 in assay [3] was 26.2 µM; in assay [4] it was 19.2 µM.

With `CS(=O)(=O)Nc1ccc([N+](=O)[O-])cc1Oc1ccccc1` [NIMESULIDE], the results for the Activity with Rattus norvegicus [2] and in the assay with Rattus norvegicus [5] were 14.1% and 23.4%, respectively.

Turning to `CCOC(=O)c1c(C)oc2ccc(Oc3ccc(C)cc3)cc12`, the Ratio IC50 in assay [1] was 0.08. The Activity with Rattus norvegicus [2] is 14.1%; in the assay with Rattus norvegicus [5], 25.8%. Moreover, the half-maximal inhibitory concentration (IC50) in assay [3] was found to be 49.7 µM; in assay [4] it was 4.2 µM.
